# US20130109620A1, “BALAGLITAZONE COMPOSITIONS AND METHODS” (RHEOSCIENCE A/S, priority 2009, published 2013)
# Structures can show the parent of a compound that is named as a salt. Where two headings read alike, the source gives them in different places.
# What was measured:
# [1] = tested on: T2D patients on stable insulin therapy; test: 26-week clinical study: adverse events and tolerability; settings: for subjects with AEs of special interest (strain on the heart or bone fractures): placebo 12%; for subjects who withdrew due to an AE: placebo 15%
# [2] = subjects on stable insulin therapy, 24-week period, reference (28), cited from earlier work
# [3] = 26-week clinical study: body weight; format: in vivo, human; settings: 26 weeks, p<0.0001
# From the text: (§1) All tablets were contained in an identical capsule. Subjects, study-site personnel, and sponsors were all blinded.
# [4] = tested on: T2D patients on stable insulin therapy; test: 26-week clinical study: glycemic control (HbA1c, FSG, 7-point glucose, serum insulin, insulin dose); format: in vivo, human; settings: for HbA1c level decrease compared to placebo / post-prandial glucose reduction (7-point glucose test) compared to placebo / fasting serum glucose (FSG) reduction compared to placebo: 26 weeks
# From the text: Subjects were required to meet the following criteria to be included in the study: type 2 diabetes mellitus being diagnosed at least three months earlier according to the 1999 World Health Organisation criteria; age ≧18 years; body mass index (“BMI”)≧25 kg/m^2; HbA1c≧7%; and treatment with insulin on a stable dose of at least 30 U/day (±4 U/day), for at least 75 days, although insulin adjustments to resolve short term acute disease were permitted. […] All tablets were contained in an identical capsule. Subjects, study-site personnel, and sponsors were all blinded. One screening visit was conducted four weeks before randomization, and at week zero, subjects meeting the inclusion and exclusion criteria were assessed for safety. Subjects visited the clinics at the screening visit, at baseline, and at weeks 4, 8, 12, 16, 20 and 26. At each visit, fasting blood samples were collected for analysis of glycemic control, lipids, and clinical chemistry. All laboratory analyses were performed by a central laboratory. Subjects were instructed to keep their usual diet. They were supplied with a plasma glucose meter and instructed regarding how to obtain 7-point plasma glucose profiles. The values of the 7-point measurement performed within the last week before visits 2, 3, 4, 5, 6, 7 and 8 were included in the study. The 7-point plasma glucose profile consisted of glucose levels before each meal (breakfast, lunch, and dinner), 90 minutes after the start of each of those meals, and at bedtime.
# [5] = tested on: T2D patients on stable insulin therapy; test: 26-week clinical study: body composition and total body BMD by DXA; format: in vivo, human; settings: 26 weeks
# Description: All tablets were contained in an identical capsule. Subjects, study-site personnel, and sponsors were all blinded. Body composition was measured by Dual Energy X-ray Absorptiometry (“DXA”) on visits 2 and 8, in which total body lean (“LTM”), fat tissue mass (“FTM”), and bone mineral density (“BMD”) were measured. Subjects were instructed to fast, beginning at 10 PM the night before body composition measurements. […] The scans were conducted using Lunar DPX (GE Healthcare Worldwide), Hologic™ (Hologic™, Hologic (UK) Limited, UK), or Norland (Norland Medical Systems, Inc.) whole body scanners, and each individual was scanned with the same scanner at both visits.
# [6] = tested on: T2D patients on stable insulin therapy; test: 26-week clinical study: lower leg volume by volume of water displacement (VWD); format: in vivo, human; settings: 26 weeks
# Description: as §1
# Lower leg volume of both legs was determined using the volume of water displacement (“VWD”) method at visits 2 and 8, using Partial Leg Baseline Volumetric Edema Gauges (26).
# [7] = tested on: T2D patients on stable insulin therapy; test: 26-week clinical study: systolic and diastolic blood pressure; format: in vivo, human; settings: 26 weeks, placebo −1.7
# From the text: as §1
# Any abnormalities were registered.
# [8] = tested on: T2D patients on stable insulin therapy; test: 26-week clinical study: serum biochemistry (ALP, lipids, NT-proBNP); format: in vivo, human; settings: 26 weeks
# Description: All tablets were contained in an identical capsule. Subjects, study-site personnel, and sponsors were all blinded. One screening visit was conducted four weeks before randomization, and at week zero, subjects meeting the inclusion and exclusion criteria were assessed for safety. Subjects visited the clinics at the screening visit, at baseline, and at weeks 4, 8, 12, 16, 20 and 26. At each visit, fasting blood samples were collected for analysis of glycemic control, lipids, and clinical chemistry. All laboratory analyses were performed by a central laboratory.
# [9] = pioglitazone 45 mg once daily, p<0.0001
# [10] = balaglitazone 10 mg once daily, p<0.01
# [11] = balaglitazone 20 mg once daily, p<0.0001
smiles,measurement,setting,value
"CCc1ccc(CCOc2ccc(CC3SC(=O)NC3=O)cc2)nc1 (racemic) [pioglitazone, [(±)-5-[[4-[2-(5-ethyl-2-pyridinyl)ethoxy]phenyl]methyl]-2,4-]thiazolidinedione monohydrochloride, reference compound]","influenza, total number of events",[1]; pioglitazone 45 mg group,10
same,number of heart failures,[1]; pioglitazone 45 mg group,3
same,subjects reporting adverse events,"[1]; pioglitazone 45 mg group, out of 102 subjects",75 subjects
same,subjects reporting influenza,"[1]; pioglitazone 45 mg group, placebo 3%",9%
same,subjects reporting nasopharyngitis,"[1]; pioglitazone 45 mg group, placebo 10%",3%
same,subjects with AEs of special interest (strain on the heart or bone fractures),[1]; pioglitazone 45 mg group,25%
same,subjects who withdrew due to an AE,[1]; pioglitazone 45 mg group,8%
same,weight increase,[2]; pioglitazone 30 mg,2.9 kg
same,weight increase,[2]; pioglitazone 45 mg,3.4 kg
same,body weight increase compared to placebo,[3]; pioglitazone 45 mg once daily,4.5 kg
same,HbA1c level decrease compared to placebo,[4]; [9],−1.22%
same,post-prandial glucose reduction (7-point glucose test) compared to placebo,[4]; [9],-2.6 mmol/L
same,fasting serum glucose (FSG) reduction compared to placebo,"[4]; pioglitazone 45 mg once daily, p<0.05",-1.4 mmol/L
same,total body bone mineral density (TB-BMD) compared with placebo,"[5]; pioglitazone 45 mg once daily, no significant change",trend toward loss of bone
same,lower leg volume (VWD) compared with placebo,[6]; pioglitazone 45 mg once daily,significantly increased lower leg volume
same,systolic blood pressure reduction,"[7]; pioglitazone 45 mg once daily, SE 0.9",−3.0 mmHg
same,diastolic blood pressure reduction,"[7]; pioglitazone 45 mg once daily, SE 1.5",−3.9 mmHg
same,serum NT-proBNP compared to placebo,[8]; pioglitazone 45 mg once daily,significant increase
"Cn1c(COc2ccc(CC3SC(=O)NC3=O)cc2)nc2ccccc2c1=O (stereo not shown) [balaglitazone, 5[4-(3-methyl-4-oxo-3,4-dihydroquinazolin-2-ylmethoxy)-benzyl]-thiazolidine-2,4-dione]",tolerability throughout the study,"[1]; balaglitazone 10 mg and 20 mg, 26 weeks",well-tolerated
same,"heart failure, peripheral oedema and myocardial infarction compared to the remaining groups",[1]; balaglitazone 10 mg group,numerically lower
same,number of heart failures,[1]; balaglitazone 10 mg group,0
same,percentage of serious adverse events,[1]; balaglitazone 10 mg group,6%
same,subjects reporting adverse events,"[1]; balaglitazone 10 mg group, out of 99 subjects",81 subjects
same,subjects with AEs of special interest (strain on the heart or bone fractures),[1]; balaglitazone 10 mg group,10%
same,subjects who withdrew due to an AE,[1]; balaglitazone 10 mg group,16%
same,percentage of serious adverse events,[1]; balaglitazone 20 mg group,11%
same,subjects reporting adverse events,"[1]; balaglitazone 20 mg group, out of 99 subjects",77 subjects
same,subjects with AEs of special interest (strain on the heart or bone fractures),[1]; balaglitazone 20 mg group,19%
same,subjects who withdrew due to an AE,[1]; balaglitazone 20 mg group,17%
same,number of fractures observed,"[1]; balaglitazone 20 mg group, the only fracture in the study",one
same,body weight increase compared to placebo,[3]; balaglitazone 10 mg once daily,3.1 kg
same,body weight increase compared to placebo,[3]; balaglitazone 20 mg once daily,4.7 kg
same,glucose-lowering capabilities compared to pioglitazone 45 mg,[4]; balaglitazone 10 mg dose,equipotent
same,HbA1c level decrease compared to placebo,"[4]; balaglitazone 10 mg once daily, p<0.0001",−0.99%
same,post-prandial glucose reduction (7-point glucose test) compared to placebo,[4]; [10],-1.6 mmol/L
same,fasting serum glucose (FSG) reduction compared to placebo,"[4]; balaglitazone 10 mg once daily, p=0.01",-1.4 mmol/L
same,HbA1c level decrease compared to placebo,[4]; [11],−1.11%
same,post-prandial glucose reduction (7-point glucose test) compared to placebo,[4]; [11],-2.5 mmol/L
same,fasting serum glucose (FSG) reduction compared to placebo,"[4]; balaglitazone 20 mg once daily, p<0.001",-1.8 mmol/L
same,total body bone mineral density (TB-BMD) compared to placebo,[5]; balaglitazone 10 mg and 20 mg groups,neither of the balaglitazone groups showed any indication of bone loss
same,whole body fat accumulation compared to pioglitazone 45 mg,[5]; balaglitazone 10 mg once daily,trend toward lower fat accumulation
same,fat mass gain in the legs compared to the pioglitazone group,[5]; [10],significantly less fat mass
same,lower leg volume (VWD) compared with placebo,[6]; balaglitazone 10 mg once daily,no significant increase in leg volume
same,lower leg volume (VWD) compared with placebo,[6]; balaglitazone 20 mg once daily,significantly increased lower leg volume
same,diastolic blood pressure reduction,"[7]; balaglitazone 10 mg once daily, SE 0.9",−1.8 mmHg
same,diastolic blood pressure reduction,"[7]; balaglitazone 20 mg once daily, SE 1.0",−2.2 mmHg
same,LDL cholesterol levels and total cholesterol,[8]; balaglitazone 10 mg and 20 mg,neither LDL cholesterol levels nor total cholesterol changed
same,HDL cholesterol levels compared to placebo,"[8]; balaglitazone 10 mg and 20 mg, p<0.001 for both groups",significantly increased
same,reduction in serum ALP compared to the pioglitazone 45 mg group,[8]; balaglitazone 10 mg once daily,significantly smaller
same,serum NT-proBNP compared to placebo,[8]; balaglitazone 10 mg once daily,only a trend was observed
same,serum NT-proBNP compared to placebo,[8]; balaglitazone 20 mg once daily,significant increase
same,increase in NT-proBNP compared to the pioglitazone 45 mg group,"[8]; balaglitazone 20 mg once daily, p<0.01",significantly larger
